# Source: patent US11021481B2, “Substituted isoindolin-1-ones and 2,3-dihydro-1h-pyrrolo[3,4-c]pyridin-1-ones as HPK1 antagonists” (Nimbus Saturn, Inc., priority 2019, dated 2021)
# Molecular target: HPK1 (Homo sapiens (Human), UniProt Q92918)
# Assay: HPK1 biochemical enzyme assay (microfluidic mobility shift assay)
# Details: 1.5 nM HPK1, ATP 1 mM final, 30 min preincubation, 60 min at RT, Caliper EZ Reader; read-out: HPK1 1000UMATP caliper IC50
# Summary of the method: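 Ten-point compound titrations (top 3 μM final) preincubated 30 min with HPK1 and substrate, then reaction started with 1 mM ATP and 1 μM substrate, 5 mM MgCl2. After 60 min at RT, reaction terminated and product measured by microfluidic mobility shift.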
# Chain of HPK1 (Q92918 whole entry): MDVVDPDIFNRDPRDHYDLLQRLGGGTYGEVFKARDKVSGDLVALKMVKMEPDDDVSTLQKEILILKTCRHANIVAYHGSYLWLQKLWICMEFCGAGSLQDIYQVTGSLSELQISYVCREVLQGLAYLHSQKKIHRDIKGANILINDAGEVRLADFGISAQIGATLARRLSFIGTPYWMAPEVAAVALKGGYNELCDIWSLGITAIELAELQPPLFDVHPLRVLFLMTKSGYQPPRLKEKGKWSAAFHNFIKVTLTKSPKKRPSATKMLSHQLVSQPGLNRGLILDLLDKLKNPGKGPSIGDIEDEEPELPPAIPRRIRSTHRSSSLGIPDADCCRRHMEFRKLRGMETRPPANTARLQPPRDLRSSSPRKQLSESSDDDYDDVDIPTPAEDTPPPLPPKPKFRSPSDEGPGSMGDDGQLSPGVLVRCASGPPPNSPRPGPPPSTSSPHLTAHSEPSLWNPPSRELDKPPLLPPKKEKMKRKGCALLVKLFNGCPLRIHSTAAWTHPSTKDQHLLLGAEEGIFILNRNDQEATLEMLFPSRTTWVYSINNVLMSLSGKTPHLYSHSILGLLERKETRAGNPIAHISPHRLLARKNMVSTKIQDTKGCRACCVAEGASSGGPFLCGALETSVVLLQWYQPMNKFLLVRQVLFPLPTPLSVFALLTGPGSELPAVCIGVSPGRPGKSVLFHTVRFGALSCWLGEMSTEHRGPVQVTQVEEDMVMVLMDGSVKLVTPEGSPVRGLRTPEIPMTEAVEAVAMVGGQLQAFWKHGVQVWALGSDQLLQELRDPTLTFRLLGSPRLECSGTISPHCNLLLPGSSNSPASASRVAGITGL
row,IC50 [nM],Structure (SMILES)
1,< 100,"Cc1ccn2c(-c3ccc(Nc4ccc(N5CCO[C@@H](C(C)(C)O)C5)cn4)c4c3CNC4=O)cnc2n1 [I-646, (R)-7-((5-(2-(2-hydroxypropan-2-yl)morpholino)pyridin-2-yl)amino)-4-(7-methylimidazo [1,2-a]pyrimidin-3-yl) isoindolin-1-one]"
2,< 100,"CN1CCN(CC2(O)CCN(c3ccc(Nc4cnc(-c5cnc6ccccn56)c5c4C(=O)NC5)nc3)CC2)CC1 [I-648, 7-((5-(4-hydroxy-4-((4-methylpiperazin-1-yl)methyl)pip-eridin-1-yl)pyridin-2-yl)amino)-4-(imidazo[1,2-a]pyridin-3-yl)-2,3-dihydro-1H-pyrrolo[3,4-c]pyridin-1-one]"
3,< 100,"O=C1NCc2c(-c3cnc4c(F)cccn34)ncc(Nc3ccc(N4CC[C@@H](F)[C@H](O)C4)cn3)c21 [I-652, 7-((5-((3R,4R)-4-fluoro-3-hydroxypiperidin-1-yl)pyridin-2-yl)amino)-4-(8-fluoroimidazo [1,2-a]pyridin-3-yl)-2,3-dihydro-1H-pyrrolo[3,4-c]pyridin-1-one]"
4,< 100,"O=C1NCc2c(-c3cnc4c(F)cccn34)ncc(Nc3ccc(N4CC[C@H](F)[C@@H](O)C4)cn3)c21 [I-653, 7-((5-((3S.4S)-4-fluoro-3-liydroxy-piperidin-1-yl)pyridin-2-yl)amino)-4-(8-fluoroimidazo [1,2-a]pyridin-3-yl)-2,3-dihydro-1H-pyrrolo[3,4-c]pyridin-1-one]"
5,< 100,"O=C1NCc2c(-c3cnc4cc(F)ccn34)ncc(Nc3ccc(N4CCCC(O)(CN5CCOCC5)C4)cn3)c21 (stereo not drawn) [I-654, 4-(7-fluoroimidazo [1,2-a]pyridin-3-yl)-7-((5-(3-hydroxy-3-(morpholinomethyl)piperidin-1-yl)pyridin-2-yl)amino)-2.3-dihydro-1H-pyrrolo[3,4-c]pyridin-1-one]"
6,< 100,"CC1(C)CNCCN1Cc1ccc(Nc2ccc(-c3cnc4c(F)c(C(F)F)ccn34)c3c2C(=O)NC3)nc1 [I-655, 4-(7-(difluoromethvl)-8-fluoroimidazo [1,2-a]pyridin-3-yl)-7-((5-((2,2-dimethylpiperazin-1-yl)methyl)pyridin-2-yl)amino)isoin-dolin-1-one]"
7,< 100,"O=C1NCc2c(-c3cnc4cc(F)ccn34)ccc(Nc3ccc(N4CCC[C@@](O)(CN5CCOCC5)C4)cn3)c21 [I-656, (R)-4-(7-fluoroimidazo [1,2-a]pyridin-3-yl)-7-((5-(3-hydroxy-3-(morpholinomethyl)piperidin-1-yl)pyridin-2-yl)amino)isoin-dolin-1-one]"
8,< 100,"O=C1NCc2c(-c3cnc4cc(F)ccn34)ccc(Nc3ccc(N4CCC[C@](O)(CN5CCOCC5)C4)cn3)c21 [I-657, (S)-4-(7-fluoroimidazo [1,2-a]pyridin-3-yl)-7-((5-(3-hydroxy-3-(morpholinomethyl)piperidin-1-yl)pyridin-2-yl)amino)isoin-dolin-1-one]"
9,< 100,"O=C1NCc2c(-c3cnc4c(F)cccn34)ncc(Nc3ccc(N4CC[C@H](F)[C@H](O)C4)cn3)c21 [I-658, 7-((5-((3R,4S]-4-fluoro-3-hydroxy-piperidin-1-yl)pyridin-2-yl)amino)-4-(8-fluoroimidazo [1,2-a]pyridin-3-yl)-2,3-dihydro-1H-pyrrolo[3,4-c]pyridin-1-one]"
10,< 100,O=C1NCc2c(-c3cnc4c(F)cccn34)ncc(Nc3ccc(N4CC[C@@H](F)[C@@H](O)C4)cn3)c21 [I-659]
11,> 1000,"Cc1ccc(Nc2cnc(-c3ccnc4c3ccn4C)c3c2C(=O)NC3)nc1N(C)C1CNC1 [I-667, 7-((6-(azetidin-3-yl-(methyl)amino)-5-methylpyridin-2-yl)amino)-4-(1-methyl-1H-pyrrolo[2.3-b]pyridin-4-yl)-2,3-dihydro-1H-pyrrolo[3,4-c]pyridin-1-one]"
12,< 100,CN(C)C(C)(C)C1CN(c2ccc(Nc3cnc(-c4ccnc5c4ccn5C)c4c3C(=O)NC4)nc2)CCO1 (stereo not drawn) [I-668]
